The record followed here is BindingDB's records for doi:10.1016/j.bmcl.2011.01.107 (Institute of Chemical Physics, 2011).

This test concerns the target NAD-dependent malic enzyme (Escherichia coli K-12, maeA) (UniProt P26616). As to the kind of experiment: Inhibition of Escherichia coli K-12 recombinant NAD-dependent malic enzyme by Dixon plot.

Chain of NAD-dependent malic enzyme (Escherichia coli K-12, maeA) (P26616 whole entry, looked up): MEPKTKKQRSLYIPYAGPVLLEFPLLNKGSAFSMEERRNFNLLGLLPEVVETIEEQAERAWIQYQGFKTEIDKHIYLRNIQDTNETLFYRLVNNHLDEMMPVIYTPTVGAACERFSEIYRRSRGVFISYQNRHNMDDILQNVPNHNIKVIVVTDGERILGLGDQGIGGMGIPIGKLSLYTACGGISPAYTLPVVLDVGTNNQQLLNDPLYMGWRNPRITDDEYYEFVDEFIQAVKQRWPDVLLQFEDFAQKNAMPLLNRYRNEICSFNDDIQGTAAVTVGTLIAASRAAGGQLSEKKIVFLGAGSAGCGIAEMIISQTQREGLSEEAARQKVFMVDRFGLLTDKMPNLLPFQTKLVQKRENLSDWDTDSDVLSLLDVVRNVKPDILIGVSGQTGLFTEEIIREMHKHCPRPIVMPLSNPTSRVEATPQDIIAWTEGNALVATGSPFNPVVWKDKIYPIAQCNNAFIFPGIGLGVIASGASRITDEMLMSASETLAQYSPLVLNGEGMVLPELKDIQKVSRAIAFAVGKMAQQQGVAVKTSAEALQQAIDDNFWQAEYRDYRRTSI

As usually defined, the Ki is the dissociation constant of the complex between target and ligand, obtained from inhibition or displacement. As to `COc1ccc(-c2cn([C@@H]3O[C@H](COP(=O)(O)O)[C@@H](O)[C@H]3O)nn2)cc1` [5-O-phosphate-1-N-(4'-(4''-methoxyhenyl))-[1',2',3']-triazol-beta-D-ribofuranoside], the Ki amounted to 57 µM.
